Test results as given in PMC8119466, “A screen of FDA-approved drugs identifies inhibitors of protein tyrosine phosphatase 4A3 (PTP4A3 or PRL-3)” (Scientific Reports, 2021).
Where a name gives a salt, the structure may show the parent alone. Read-outs that look alike come from different tables or passages of the source.

Assays:
[1] = molecular target: T1, recombinant PRL-2 (Homo sapiens, UniProt Q12974); assay: In vitro phosphatase assay (DiFMUP hydrolysis), PRL-2; assay type: biochemical;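 note: PRL-2 activity read as DiFMUP hydrolysis after 20 min at room temperature with drug, enzyme first pre-reduced at 4 °C for 20 min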
T1 construct: 6xHis (N, cleaved yes); made in house; host or cells: E. coli One Shot BL21 Star
T1 sequence (Q12974 1-167): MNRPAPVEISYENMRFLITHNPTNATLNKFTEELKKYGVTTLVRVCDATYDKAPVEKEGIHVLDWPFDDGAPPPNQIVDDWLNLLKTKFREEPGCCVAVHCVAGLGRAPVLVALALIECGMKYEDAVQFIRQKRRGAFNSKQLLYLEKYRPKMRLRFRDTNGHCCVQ

[2] = molecular target: T2, recombinant PRL-3 (Homo sapiens, UniProt O75365); assay: In vitro phosphatase assay (DiFMUP hydrolysis), PRL-3; assay type: biochemical
T2 construct: 6xHis (N, cleaved yes); made in house; host or cells: E. coli One Shot BL21 Star

[3] = FDA-approved drug screen, compared to DMSO

T2 sequence (O75365 whole entry): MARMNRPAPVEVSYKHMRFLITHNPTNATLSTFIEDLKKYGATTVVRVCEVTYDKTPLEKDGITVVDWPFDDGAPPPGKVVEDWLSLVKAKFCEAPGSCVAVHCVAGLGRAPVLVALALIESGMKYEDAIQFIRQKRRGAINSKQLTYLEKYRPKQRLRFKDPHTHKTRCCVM

Compound | % Phosphatase Activity (compared to DMSO) PRL-3 [2, 3] | % Phosphatase Activity (compared to DMSO) PRL-2 [1, 3] | other results
CC1(C)CCC(CN2CCN(c3ccc(C(=O)NS(=O)(=O)c4ccc(NCC5CCOCC5)c([N+](=O)[O-])c4)c(Oc4cnc5[nH]ccc5c4)c3)CC2)=C(c2ccc(Cl)cc2)C1 [ABT-199, reference compound] | – | – | selectivity in inhibiting PRL-2 over other PRLs ([1]; drug 40 µM): demonstrated selectivity in inhibiting PRL-2
CCN(CC)CCOC(=O)C(c1ccccc1)c1ccccc1 [Adiphenine HCl] | 82% | 101% | –
CN(C)C/C=C/C(=O)Nc1cc2c(Nc3ccc(F)c(Cl)c3)ncnc2cc1O[C@H]1CCOC1 [Afatinib (BIBW2992)] | 85% | 106% | –
CC1(C)S[C@@H]2[C@H](NC(=O)[C@H](N)c3ccc(O)cc3)C(=O)N2[C@H]1C(=O)O [Amoxicillin] | 106% | 150% | –
Cc1c(-c2ccc(O)cc2)n(Cc2ccc(OCCN3CCCCCC3)cc2)c2ccc(O)cc12 [Bazedoxifene Acetate] | – | 106% | –
CCC1(C)CC(=O)NC(=O)C1 [Bemegride] | 81% | 97% | –
O=C(O)c1ccccc1 [Benzoic Acid] | 76% | 101% | –
O=C(O)CCCN1CCC(O[C@@H](c2ccc(Cl)cc2)c2ccccn2)CC1.O=S(=O)(O)c1ccccc1 [Bepotastine Besilate] | 98% | 113% | –
COc1cc2c(cc1OC)[C@@]13CCN4CC5=CCO[C@H]6CC(=O)N2[C@H]1[C@H]6[C@H]5C[C@H]43 [Brucine] | 83% | 86% | –
COc1cc(OC)c(C(=O)CCCN2CCCC2)c(OC)c1.Cl [Buflomedil HCl] | 87% | 118% | –
COc1cc2nccc(Oc3ccc(NC(=O)C4(C(=O)Nc5ccc(F)cc5)CC4)cc3)c2cc1OC [Cabozantinib (XL184, BMS-907351)] | 75% | 96% | –
COc1cc2nccc(Oc3ccc(NC(=O)C4(C(=O)Nc5ccc(F)cc5)CC4)cc3)c2cc1OC.O=C(O)C[C@H](O)C(=O)O [Cabozantinib malate (XL184)] | 96% | 115% | –
Cc1ccc([C@@H]2O[C@H](CO)[C@@H](O)[C@H](O)[C@H]2O)cc1Cc1ccc(-c2ccc(F)cc2)s1 [Canagliflozin] | 90% | 106% | –
CC1(C)S[C@@H]2[C@H](NC(=O)C(C(=O)O)c3ccccc3)C(=O)N2[C@H]1C(=O)O (stereo partly drawn) [Carbenicillin disodium] | 87% | 101% | –
CN(C)CCC(c1ccc(Cl)cc1)c1ccccn1 (stereo not drawn) [Chlorpheniramine Maleate] | 104% | 103% | –
CN(C)CCCN1c2ccccc2Sc2ccc(Cl)cc21 [Chlorpromazine HCl] | 81% | 109% | –
Cc1cc(C2CCCCC2)n(O)c(=O)c1 [Ciclopirox] | 76% | 111% | –
COc1ccc([C@]2(C#N)CC[C@@H](C(=O)O)CC2)cc1OC1CCCC1 [Cilomilast] | 88% | 99% | –
C[C@@H](NCCCc1cccc(C(F)(F)F)c1)c1cccc2ccccc12 [Cinacalcet HCl] | 81% | 114% | –
CC[C@H]1OC(=O)[C@H](C)[C@@H](O[C@H]2C[C@@](C)(OC)[C@@H](O)[C@H](C)O2)[C@H](C)[C@@H](O[C@@H]2O[C@H](C)C[C@H](N(C)C)[C@H]2O)[C@](C)(OC)C[C@@H](C)C(=O)[C@H](C)[C@@H](O)[C@]1(C)O [Clarithromycin] | 86% | 111% | –
Clc1ccccc1C(c1ccccc1)(c1ccccc1)n1ccnc1 [Clotrimazole] | 88% | 108% | –
C[C@@H](Oc1cc(-c2cnn(C3CCNCC3)c2)cnc1N)c1c(Cl)ccc(F)c1Cl [Crizotinib (PF-02341066)] | 81% | 119% | –
CN1CCC(=C2c3ccccc3C=Cc3ccccc32)CC1 [Cyproheptadine HCl] | 93% | 112% | –
N[C@@H]1CON=C1O [D-Cycloserine] | 95% | 101% | –
C[N+](C)(C)CCCCCCCCCC[N+](C)(C)C [Decamethonium Bromide] | 71% | 118% | –

Compound | % Phosphatase Activity (compared to DMSO) PRL-3 [2, 3] | % Phosphatase Activity (compared to DMSO) PRL-2 [1, 3] | other results
C[C@@H]1C[C@H]2[C@@H]3CCC4=CC(=O)C=C[C@]4(C)[C@@]3(F)[C@@H](O)C[C@]2(C)[C@@]1(O)C(=O)CO [Dexamethasone, reference compound] | – | – | effect on PRL phosphatase activity (DiFMUP hydrolysis), in words ([2]; PRL-1, PRL-2, PRL-3 for research-grade inhibitors, PRL-3 for Dexamethasone): no effect on PRL-3 phosphatase activity
C[N+]1(C)CCC(=C(c2ccccc2)c2ccccc2)CC1 [Diphemanil Methylsulfate] | 91% | 124% | –
CN(CCOc1ccc(NS(C)(=O)=O)cc1)CCc1ccc(NS(C)(=O)=O)cc1 [Dofetilide] | 82% | 88% | –
CCN[C@H]1C[C@H](C)S(=O)(=O)c2sc(S(N)(=O)=O)cc21 [Dorzolamide HCl] | 87% | 81% | –
CCn1cc(C(=O)O)c(=O)c2cc(F)c(N3CCNCC3)nc21 [Enoxacin] | 98% | 95% | –
O=S(=O)([O-])CCCS(=O)(=O)[O-].[Na+].[Na+] [Eprodisate (disodium)] | 112% | 126% | –
OC(Cn1cncn1)(Cn1cncn1)c1ccc(F)cc1F [Fluconazole] | 76% | 97% | –
O=c1[nH]cc(F)c(=O)[nH]1 [Fluorouracil (5-Fluoracil, 5-FU)] | 75% | 109% | –
N[C@@H](CSCCCO)C(=O)O [Fudosteine] | 92% | 75% | –
Br.COc1ccc2c3c1O[C@H]1C[C@@H](O)C=C[C@@]31CCN(C)C2 [Galanthamine HBr] | 93% | 85% | –
CC1(C)O[C@@H]2C[C@H]3[C@@H]4CCC5=CC(=O)CC[C@]5(C)[C@@]4(F)[C@@H](O)C[C@]3(C)[C@]2(C(=O)CCl)O1 [Halcinonide] | 93% | 105% | –
Cl.Cl.OCCOCCN1CCN(C(c2ccccc2)c2ccc(Cl)cc2)CC1 (stereo not drawn) [Hydroxyzine 2HCl] | 85% | 103% | –
COC1=C(OC)C(=O)C(CCCCCCCCCCO)=C(C)C1=O [Idebenone] | 101% | 150% | –
CCC(C)n1ncn(-c2ccc(N3CCN(c4ccc(OCC5COC(Cn6cncn6)(c6ccc(Cl)cc6Cl)O5)cc4)CC3)cc2)c1=O (stereo not drawn) [Itraconazole] | 74% | 93% | –
CC[C@@H](C(N)=O)N1CCCC1=O [Levetiracetam] | 71% | 90% | –
CCN(CC)CC(=O)Nc1c(C)cccc1C [Lidocaine] | 63% | 91% | –
COC(=O)C1=C(C)NC(C)=C(C(=O)OCCN2CCN(C(c3ccccc3)c3ccccc3)CC2)C1c1cccc([N+](=O)[O-])c1 (stereo not drawn) [Manidipine] | 77% | 93% | –
C#C[C@]1(O)CC[C@H]2[C@@H]3CCc4cc(OC)ccc4[C@H]3CC[C@@]21C [Mestranol] | 77% | 99% | –
O=C(NCCN1CCOCC1)c1ccc(Cl)cc1 [Moclobemide (Ro 111163)] | 83% | 109% | –
Cl.N=C(N=C(N)N)N1CCOCC1 [Moroxydine HCl] | 79% | 102% | –
FC(F)(F)c1ccc(/C=C/c2nc(COc3ccc(CCCCn4ccnn4)cc3)co2)cc1 [Mubritinib (TAK 165)] | – | – | % Phosphatase Activity (compared to DMSO) PRL-3 [2]: 101%; % Phosphatase Activity (compared to DMSO) PRL-2 [1]: 114%
C=C1CC[C@@]2(O)[C@H]3Cc4ccc(O)c5c4[C@@]2(CCN3CC2CC2)[C@H]1O5 [Nalmefene HCl] | 95% | 102% | –
Cl.O=C(O)/C=C/c1ccc(Cn2ccnc2)cc1 [Ozagrel HCl] | 81% | 120% | –
CC(=O)O[C@H]1C[C@@H]2CC[C@@H]3[C@H](CC[C@@]4(C)[C@H]3C[C@H]([N+]3(C)CCCCC3)[C@@H]4OC(C)=O)[C@@]2(C)C[C@@H]1[N+]1(C)CCCCC1.[Br-].[Br-] [Pancuronium dibromide] | 85% | 109% | –
Aprotinin | – | 90% | –
